{"source": "paper PMC12391581", "about": "(Antiviral Research, 2025)", "key": {"A(H3N2) viruses [1]": {"tested_on": "A(H3N2) viruses", "type": "cell-based, influenza A(H3N2) virus"}, "A(H1N1)pdm09 viruses": {"tested_on": "A(H1N1)pdm09 viruses", "type": "cell-based, influenza A(H1N1)pdm09 virus"}, "A(H3N2) viruses [2]": {"tested_on": "A(H3N2) viruses", "type": "cell-based, influenza A(H3N2) virus", "remark": "listed apart in the source"}, "[3]": {"tested_on": "neuraminidase (NA) of A(H3N2) viruses", "type": "biochemical, influenza A(H3N2) virus"}, "[4]": {"tested_on": "neuraminidase (NA) of A(H1N1)pdm09 viruses", "type": "biochemical, influenza A(H1N1)pdm09 virus"}, "[5]": {"tested_on": "neuraminidase (NA) of B/Victoria-lineage viruses", "type": "biochemical, influenza B/Victoria-lineage virus"}}, "note": "Values joined by “and” are separate entries in the source; they are usually repeats but may differ in a detail not shown here. Identical values can stand only once. Marks after values point to notes of the source that are not given here."}
{"compound": "COC(=O)OCOc1c2n(ccc1=O)N([C@@H]1c3ccccc3SCc3c1ccc(F)c3F)[C@@H]1COCCN1C2=O", "note": "[Baloxavir, baloxavir marboxil]", "values": [{"measurement": "IRINA fold-change compared to PA-sequence matched virus", "setting": "A(H3N2) viruses [1]", "result": 4.8, "unit": "fold"}, {"measurement": "EC50 fold-change compared to reference median EC50 values", "setting": "A(H1N1)pdm09 viruses", "result": "2.72 fold and 2.72 ^e fold"}, {"measurement": "Fold change in EC50", "setting": "A(H1N1)pdm09 viruses", "result": "2.72^d fold"}, {"measurement": "baloxavir susceptibility phenotype", "setting": "A(H1N1)pdm09 viruses", "result": "RS (key: RS to baloxavir is provisionally defined as >3-fold change in EC50 of a test virus compared to the subtype/lineage-specific median EC50 values)"}, {"measurement": "HINT fold-change compared to PA-sequence matched virus", "setting": "A(H3N2) viruses [2]", "result": 4.4, "unit": "fold"}]}
{"compound": "CCOC(=O)C1=C[C@@H](OC(CC)CC)[C@H](NC(C)=O)[C@@H](N)C1", "note": "[Oseltamivir, oseltamivir]", "values": [{"measurement": "Fold-change in IC50", "setting": "[3]", "result": 1.86, "unit": "fold"}, {"measurement": "IC50 fold-change compared to reference median IC50 values", "setting": "[3]", "result": 1.86, "unit": "fold"}]}
{"compound": "CCC(CC)[C@H](NC(C)=O)[C@@H]1[C@H](O)[C@@H](C(=O)O)C[C@H]1N=C(N)N", "note": "[Peramivir, peramivir]", "values": [{"measurement": "NAI inhibition phenotype (NI/RI/HRI)", "setting": "[4]", "result": "HRI (key: normal inhibition (NI) is a <10-fold increase in the NAI IC50; RI is a 10- to 100-fold increase; HRI is a >100-fold increase)"}, {"measurement": "Fold-change in IC50", "setting": "[5]", "result": 158, "unit": "fold"}, {"measurement": "IC50 fold-change compared to reference median IC50 values", "setting": "[5]", "result": 158, "unit": "fold"}, {"measurement": "NAI inhibition phenotype (NI/RI/HRI)", "setting": "[5]", "result": "HRI (key: normal inhibition (NI) is a <5-fold increase in the NAI IC50; RI is a 5- to 50-fold increase; HRI is a >50-fold increase)"}]}
{"compound": "CC(=O)N[C@H]1[C@H]([C@H](O)[C@H](O)CO)OC(C(=O)O)=C[C@@H]1N=C(N)N", "note": "[Zanamivir, zanamivir]", "values": [{"measurement": "IC50 fold-change (borderline RI)", "setting": "[5]", "result": "5.76- to 6.25 fold"}, {"measurement": "Fold-change in IC50", "setting": "[3]", "result": 10.16, "unit": "fold"}, {"measurement": "IC50 fold-change compared to reference median IC50 values", "setting": "[3]", "result": 10.16, "unit": "fold"}, {"measurement": "NAI inhibition phenotype (NI/RI/HRI)", "setting": "[3]", "result": "RI (key: normal inhibition (NI) is a <10-fold increase in the NAI IC50; RI is a 10- to 100-fold increase; HRI is a >100-fold increase)"}]}
{"compound": "[H]/N=C(\\N)N[C@H]1C=C(C(=O)O)O[C@@H]([C@H](OC)[C@H](O)CO)[C@@H]1NC(C)=O", "note": "[Laninamivir, laninamivir]", "values": [{"measurement": "Fold-change in IC50", "setting": "[5]", "result": 0.91, "unit": "fold"}, {"measurement": "IC50 fold-change compared to reference median IC50 values", "setting": "[5]", "result": 0.91, "unit": "fold"}]}
